# System: cysteine cathepsins
# Assay: inhibition of probe labeling in living RAW cells by JPM-OEt pretreatment
# Assay type: cell-based, mouse
# Conditions: JPM-OEt pre-treatment (50 μM, 1 hr)
# Procedure: RAW cells were cultured in DMEM (GIBCO) supplemented with 10% fetal bovine serum (FBS; GIBCO), 100 units/mL penicillin and 100 μg/mL streptomycin (GIBCO). 4T1 cells (ATCC) were cultured in RPMI (GIBCO) supplemented with 10% fetal bovine serum (FBS; GIBCO), 100 units/mL penicillin and 100 μg/mL streptomycin (GIBCO). All cells were cultured in a 5% CO2 humidified incubator at 37° C. For intact cell labeling, cells were exposed to probe (500× in DMSO) in culture media and incubated for 2 hr at 37° C., unless stated otherwise. Where indicated the cells were preincubated for 1 hr with the inhibitor JPM-OEt (500× in DMSO) or exposed to mouse serum (1 μl probe stock solution in DMSO added to 9 μl serum) for 4 hr before addition to the cells. After labeling, the cells were washed with PBS and resuspended in hypotonic lysis buffer (50 mM PIPES pH 7.4, 10 mM KCl, 5 mM MgCl2, 2 mM EDTA, 4 mM DTT, and 1% NP-40) and put on ice for 15 min, centrifuged at 4° C. for 30 min and supernatants were collected, and protein concentration was determined using a BCA kit (pierce). […] Labeling intensities were quantified using Image J software. […] After 15 min on ice and centrifugation at 4° C. for 30 min the supernatants were collected, and protein concentration was determined using a BCA kit (pierce). […] 4× SDS-sample buffer was added and the protein was denatured for 3 min at 100° C. and analyzed as described above. […]
substance,measurement,value
JPM-OEt,blocking of probe labeling,more than 90%

# — patent US12059482B2, “Activity-based probe compounds, compositions, and methods of use” (THE BOARD OF TRUSTEES OF THE LELAND STANFORD JUNIOR …, priority 2016, dated 2024)
